Data taken from PMC8113459, “Selective inhibition of cullin 3 neddylation through covalent targeting DCN1 protects mice from acetaminophen-induced liver toxicity” (Nature Communications, 2021).
“And” between values parts separate entries of the source, which are not always exact repeats. Identical values can stand only once. Like-named read-outs stand apart in the source and are kept apart here.

Legend:
DCN1 [1] = biological target: T1, DCN1 (Homo sapiens, UniProt Q96GG9); assay: Intact-protein mass spectrometric analysis, Method B (DCN1); type: binding; settings: 1 h incubation, 100 nM protein
Experimental: Method B: Recombinant DCN1 or DCN3 protein (100 nM in 25 mM Tris 7.5, 200 mM NaCl, 1 mM DTT buffer) was incubated with 1.2-fold excess of the DCN1 inhibitors at 37 °C for 10 min, 1 h, or 3 h. Following incubation, the protein was analyzed by LC–MS (Agilent Q-TOF 6545) under the following conditions: fragmentor voltage, 300 V; skimmer voltage, 75 V; nozzle voltage, 100 V; sheath gas temperature, 350 °C; and drying gas temperature, 325 °C. MassHunter Qualitative Analysis software (Agilent) was used to analyze the data. Intact protein masses were obtained using the maximum entropy deconvolution algorithm. The mass spectrometry data in Supplementary Figs. 14–17 were generated by Method B.

MDA-MB-231 cells = assay: Cell viability assay (WST-8), MDA-MB-231; type: cell-based, human; settings: for cell viability relative to control: replicates
Method in brief: (§1)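 Cells (2000–3000 per well) were treated with serial dilutions of DCN1 inhibitors for 3 days, then incubated 1–3 h with WST-8 and absorbance read at 450 nm. Growth inhibition was sample-to-control absorbance ratio, with EC50 from fitted curves.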

[2] = Cell viability assay (WST-8), MDA-MB-231; type: cell-based, human; settings: human, MDA-MB-231 cells, replicates, read-out: cell viability relative to control
Method in brief: as §1

DCN1 [3] = biological target: T1, DCN1; assay: BLI assay; type: binding; parameters: biotin (chemical labelling, EZ-Link long-chain reagent)
Experimental: BLI experiments were performed using an OctetRED96 instrument from PALL/ForteBio, as previously described. All assays were run at 30 °C using PBS (pH 7.4) as the assay buffer, in which 0.1% BSA, 0.01% Tween-20, and 2% DMSO were added. DCN1 protein was biotinylated using the Thermo EZ-Link long-chain biotinylation reagent. Biotinylated DCN1 protein was tethered on super streptavidin biosensors (ForteBio) by dipping sensors into 10 µg/mL protein solutions. To eliminate loose nonspecific bound protein and establish a stable base line, sensors with proteins were moved and dipped into wells with pure assay buffer and equilibrated in the buffer for 10 min. Association–dissociation cycles were performed by moving and dipping sensors into compound solution wells then into pure buffer wells. DMSO-only reference was included in all assays.

[4] = biological target: T2, cellular DCN3 protein in U2OS cells (Homo sapiens, UniProt Q8IWE4); assay: Cellular thermal shift assay (CETSA), DCN3; type: cell-based; settings: concentrations up to 1000 nM
T2 construct: endogenous in cells; host or cells: U2OS
Experimental: CETSA was performed as previously described. The U2OS cells (5 × 10^5 per sample) were treated with compounds or with DMSO for 1 h, washed with PBS for three times, and dissolved in 50 µL PBS supplemented with protease inhibitor, followed by heating at 53 °C in a Mastercycler gradient (Eppendorf, New York, USA). Treated cells were then subjected to snap-freezing in liquid nitrogen and thawed on ice for three cycles. The protein level of DCN1 and DCN3 in equal amount of the supernatant was examined by western blot methods. GAPDH was used as a control. Results are representative of three independent experiments.

NQO1 mRNA = assay: RT-PCR, NQO1 mRNA in THLE2 cells; type: cell-based, human; settings: for NQO1 mRNA level relative to control: THLE2, 10 nM, replicates
Experimental: Supplementary Figure 23. DI‐1859 increases the mRNA level of NRF2 ta rge te d genes NQO1 and
HO‐1. THLE2 cells we re treated with DI‐1859 at 10 nM fo r 4, 8 and 24 h. Tr e a t e d cells were
harvested and the mRNA level of HO‐1 and NQO1 we re exa m i n e d by RT‐PCR assay. The probes
Scientific (Ann Arbor, MI). Data are presented as mean values with n = 2 independent biological […]

T1 sequence (Q96GG9 whole entry, the tested form may be a part): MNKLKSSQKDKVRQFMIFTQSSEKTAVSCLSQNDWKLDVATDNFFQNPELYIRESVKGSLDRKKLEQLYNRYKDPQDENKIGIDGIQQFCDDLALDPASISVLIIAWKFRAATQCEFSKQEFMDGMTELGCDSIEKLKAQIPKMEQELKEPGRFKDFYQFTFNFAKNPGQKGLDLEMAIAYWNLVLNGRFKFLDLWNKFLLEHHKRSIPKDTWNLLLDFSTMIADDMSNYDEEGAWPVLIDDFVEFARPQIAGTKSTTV
T2 sequence (Q8IWE4 whole entry): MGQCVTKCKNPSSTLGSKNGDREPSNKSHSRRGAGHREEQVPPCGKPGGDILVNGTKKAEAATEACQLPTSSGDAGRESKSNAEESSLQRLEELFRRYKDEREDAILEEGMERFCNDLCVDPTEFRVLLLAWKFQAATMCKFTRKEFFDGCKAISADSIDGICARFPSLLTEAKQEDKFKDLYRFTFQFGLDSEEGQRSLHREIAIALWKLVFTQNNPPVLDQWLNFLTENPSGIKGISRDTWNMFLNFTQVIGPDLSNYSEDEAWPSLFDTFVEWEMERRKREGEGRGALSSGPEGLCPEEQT

Row | Structure (SMILES) | covalent complex formation with DCN1 (DCN1 [1]) | EC50 (MDA-MB-231 cells; Homo sapiens, MDA-MB-231, 72 h, cell line assigned from panel order, read-out: EC50, cell growth inhibition) [nM] | cell viability relative to control (MDA-MB-231 cells; conc 10, 72 h) | cell viability relative to control (MDA-MB-231 cells; conc 30, 72 h) | cell viability relative to control (MDA-MB-231 cells; conc 100, 72 h) | cell viability relative to control (MDA-MB-231 cells; conc 300, 72 h) | cell viability relative to control (MDA-MB-231 cells; conc 1000, 72 h) | viability at 72 h ([2]; conc 30, 72 h) [%] | viability at 72 h ([2]; conc 100, 72 h) [%] | dissociation phase of the complex with DCN1 (DCN1 [3]) | concentration at which the BLI signal reaches near its maximum (DCN1 [3]; 1.56 to 100 nM tested) [nM] | effect on the thermal stability of cellular DCN3 protein [4] | NQO1 mRNA level relative to control (NQO1 mRNA; 4 h (time from row order and b199)) | NQO1 mRNA level relative to control (NQO1 mRNA; 8 h (time from row order and b199)) | NQO1 mRNA level relative to control (NQO1 mRNA; 24 h (time from row order and b199)) | increase of NQO1 mRNA level (NQO1 mRNA; THLE2 liver cells, qRT-PCR) [folds]
1 | C=C(CN1CCOCC1)C(=O)NC[C@@H](NC(=O)[C@H](Cc1nc2ccc(C(C)C)cc2s1)NC(=O)CC)C1CCCCC1 [DI-1548] | rapid and complete formation | > 1000 | 103.908 and 110.805 and 88.1609 | 104.754 and 102.705 | 102.874 and 99.4253 | 87.0115 and 106.207 and 84.7126 | 77.0115 and 107.241 and 112.414 | 105 | 97.2 | no dissociation phase | 25 | no discernible effect | – | – | – | –
2 | C=C(CN(C)C)C(=O)NC[C@@H](NC(=O)[C@H](Cc1nc2ccc(C(C)C)cc2s1)NC(=O)CC)C1CCCCC1 [DI-1859] | – | – | – | – | – | – | – | – | – | – | – | – | 2.3 and 2 | 2.7 and 2.6 | 19.3 and 16 | 17
